Measured values: PubChem BioAssay AID248 (DTP/NCI, 2004)
Several values for one entry are separate records, joined by “and”; a condition that tells them apart may be missing. Equal entries are not always repeated. Inconclusive results and toxic doses are left out. No stated cut-off is given here; in the data, active means T/C of 150% or more; inactive means T/C below 125%.

Tested on: L1210 leukemia ip in BDF1 mice, survival T/C
Test: NCI In Vivo Anticancer Drug Screen. Data for tumor model L1210 Leukemia (intraperitoneal) in B6D2F1 (BDF1) mice
Conditions: higher = longer survival
Description: The antitumor activity of compounds was measured in mice bearing transplantable tumors. Survival or tumor size were measured and the results are expressed as the measurement made in the treated group (T) divided by the measurement made in the vehicle treated control group (C). The tumor model used in this assay is L1210 Leukemia (intraperitoneal) in B6D2F1 (BDF1) mice

[1] = endpoint: mean survival time, dose: 50.0 mg/kg/injection, schedule: Q04DX003 (ip), vehicle: saline
[2] = endpoint: mean survival time, dose: 100.0 mg/kg/injection, schedule: Q04DX003 (ip), vehicle: saline
[3] = endpoint: mean survival time, dose: 100.0 mg/kg/injection, schedule: Q01DX009 (ip), vehicle: Klucel (hydroxypropylcellulose) (HPC)
[4] = endpoint: mean survival time, dose: 100.0 mg/kg/injection, schedule: Q04DX003 (ip), vehicle: Klucel (hydroxypropylcellulose) (HPC)
[5] = endpoint: mean survival time, dose: 200.0 mg/kg/injection, schedule: Q01DX009 (ip), vehicle: Klucel (hydroxypropylcellulose) (HPC)
[6] = endpoint: mean survival time, dose: 200.0 mg/kg/injection, schedule: Q04DX003 (ip), vehicle: Klucel (hydroxypropylcellulose) (HPC)
[7] = endpoint: mean survival time, dose: 400.0 mg/kg/injection, schedule: Q01DX009 (ip), vehicle: Klucel (hydroxypropylcellulose) (HPC)
[8] = endpoint: mean survival time, dose: 400.0 mg/kg/injection, schedule: Q04DX003 (ip), vehicle: Klucel (hydroxypropylcellulose) (HPC)
[9] = endpoint: mean survival time, dose: 100.0 mg/kg/injection, schedule: Q01DX001 (ip), vehicle: saline
[10] = endpoint: mean survival time, dose: 100.0 mg/kg/injection, schedule: Q01DX009 (ip), vehicle: other
[11] = endpoint: mean survival time, dose: 200.0 mg/kg/injection, schedule: Q01DX009 (ip), vehicle: other
[12] = endpoint: mean survival time, dose: 400.0 mg/kg/injection, schedule: Q01DX009 (ip), vehicle: other
[13] = endpoint: mean survival time, dose: 200.0 mg/kg/injection, schedule: Q04DX003 (ip), vehicle: saline
[14] = endpoint: mean survival time, dose: 400.0 mg/kg/injection, schedule: Q04DX003 (ip), vehicle: saline
[15] = endpoint: mean survival time, dose: 100.0 mg/kg/injection, schedule: Q04DX003 (ip), vehicle: saline with Tween-80
[16] = endpoint: mean survival time, dose: 200.0 mg/kg/injection, schedule: Q04DX003 (ip), vehicle: saline with Tween-80
[17] = endpoint: mean survival time, dose: 400.0 mg/kg/injection, schedule: Q04DX003 (ip), vehicle: saline with Tween-80

Measured: T/C

O=C1OC(c2cccc(Cl)c2)=N/C1=C\c1ccc(O)cc1
inactive: endpoint: mean survival time, dose: 100.0 mg/kg/injection, schedule: Q04DX002 (ip), vehicle: saline with Tween-80 118 % of control | endpoint: mean survival time, dose: 200.0 mg/kg/injection, schedule: Q04DX002 (ip), vehicle: saline with Tween-80 100 % of control | endpoint: mean survival time, dose: 400.0 mg/kg/injection, schedule: Q04DX002 (ip), vehicle: saline with Tween-80 104 % of control

CCCCCCCCP(=O)(N1CC1)N1CC1
inactive: endpoint: mean survival time, dose: 5.0 mg/kg/injection, schedule: Q01DX Z (ip), vehicle: carboxymethylcellulose (CMC) 107 % of control | endpoint: mean survival time, dose: 6.25 mg/kg/injection, schedule: Q01DX Z (ip), vehicle: carboxymethylcellulose (CMC) 98 % of control | endpoint: mean survival time, dose: 10.0 mg/kg/injection, schedule: Q01DX Z (ip), vehicle: carboxymethylcellulose (CMC) 102 % of control | endpoint: mean survival time, dose: 12.5 mg/kg/injection, schedule: Q01DX Z (ip), vehicle: carboxymethylcellulose (CMC) 110 % of control | endpoint: mean survival time, dose: 20.0 mg/kg/injection, schedule: Q01DX Z (ip), vehicle: carboxymethylcellulose (CMC) 110 % of control | endpoint: mean survival time, dose: 25.0 mg/kg/injection, schedule: Q01DX Z (ip), vehicle: carboxymethylcellulose (CMC) 113 % of control | endpoint: mean survival time, dose: 40.0 mg/kg/injection, schedule: Q01DX Z (ip), vehicle: carboxymethylcellulose (CMC) 117 % of control | endpoint: mean survival time, dose: 50.0 mg/kg/injection, schedule: Q01DX Z (ip), vehicle: carboxymethylcellulose (CMC) 120 % of control

C[N+]1(C)C2CSCC1CC(O)C2 (centres undefined)
inactive: endpoint: mean survival time, dose: 12.5 mg/kg/injection, schedule: Q01DX009 (ip), vehicle: saline 105 % of control | endpoint: mean survival time, dose: 12.5 mg/kg/injection, schedule: Q04DX003 (ip), vehicle: saline 104 % of control | endpoint: mean survival time, dose: 25.0 mg/kg/injection, schedule: Q01DX009 (ip), vehicle: saline 117 % of control | endpoint: mean survival time, dose: 25.0 mg/kg/injection, schedule: Q04DX003 (ip), vehicle: saline 98 % of control | endpoint: mean survival time, dose: 50.0 mg/kg/injection, schedule: Q01DX009 (ip), vehicle: saline 106 % of control | [1] 102 % of control | [2] 101 % of control

C[SiH]1c2ccccc2CCc2ccccc21
inactive: [3] 102 % of control | [4] 104 % of control | [5] 104 % of control | [6] 105 % of control | [7] 106 % of control | [8] 107 % of control

CCCOC(=O)C(OC(=O)c1ccccc1)C(OC(=O)c1ccccc1)C(=O)OCCC (centres undefined)
inactive: [9] 104 % of control | endpoint: mean survival time, dose: 200.0 mg/kg/injection, schedule: Q01DX001 (ip), vehicle: saline 96 % of control | endpoint: mean survival time, dose: 400.0 mg/kg/injection, schedule: Q01DX001 (ip), vehicle: saline 94 % of control

CCCCCCC(=O)/C=C/c1ccccc1Cl
inactive: [10] 98 % of control | [11] 92 % of control | [12] 93 % of control

O=C(O)c1cc(C(=O)O)c(C(=O)O)cc1C(=O)O (tested in a mixture with another compound)
inactive: endpoint: mean survival time, dose: 5.0 mg/kg/injection, schedule: Q01DX001 (ip), vehicle: saline 107 % of control | endpoint: mean survival time, dose: 10.0 mg/kg/injection, schedule: Q01DX001 (ip), vehicle: saline 103 % of control | endpoint: mean survival time, dose: 20.0 mg/kg/injection, schedule: Q01DX001 (ip), vehicle: saline 98 % of control | endpoint: mean survival time, dose: 40.0 mg/kg/injection, schedule: Q01DX001 (ip), vehicle: saline 104 % of control | endpoint: mean survival time, dose: 80.0 mg/kg/injection, schedule: Q01DX001 (ip), vehicle: saline 96 % of control | [9] 98 % of control

CC(=O)CCCN(CCO)CCO
inactive: endpoint: mean survival time, dose: 100.0 mg/kg/injection, schedule: Q01DX009 (ip), vehicle: saline 88 % of control | [2] 96 % of control | endpoint: mean survival time, dose: 200.0 mg/kg/injection, schedule: Q01DX009 (ip), vehicle: saline 92 % of control | [13] 96 % of control | endpoint: mean survival time, dose: 400.0 mg/kg/injection, schedule: Q01DX009 (ip), vehicle: saline 96 % of control | [14] 102 % of control

N#C[CH2][Sn]([c]1ccccc1)([c]1ccccc1)[c]1ccccc1
inactive: endpoint: mean survival time, dose: 12.5 mg/kg/injection, schedule: Q04DX002 (ip), vehicle: saline with Tween-80 100 % of control | endpoint: mean survival time, dose: 25.0 mg/kg/injection, schedule: Q04DX002 (ip), vehicle: saline with Tween-80 96 % of control | endpoint: mean survival time, dose: 50.0 mg/kg/injection, schedule: Q04DX002 (ip), vehicle: saline with Tween-80 93 % of control

CCOC(=O)C(c1ccccc1)N(c1ccccc1)S(=O)(=O)c1ccc(C)cc1 (centres undefined)
inactive: endpoint: mean survival time, dose: 100.0 mg/kg/injection, schedule: Q01DX001 (ip), vehicle: other 116 % of control | endpoint: mean survival time, dose: 200.0 mg/kg/injection, schedule: Q01DX001 (ip), vehicle: other 98 % of control | endpoint: mean survival time, dose: 400.0 mg/kg/injection, schedule: Q01DX001 (ip), vehicle: other 101 % of control

O=[N+]([O-])c1ccc(C(O)CC(O)(C(F)(F)F)C(F)(F)F)cc1 (centres undefined)
inactive: [3] 93 % of control | [4] 94 % of control | [5] 94 % of control | [6] 91 % of control | [7] 97 % of control | [8] 95 % of control

CN(C)c1ccc(C=Nc2ccc(S(N)(=O)=O)cc2)cc1
inactive: [3] 100 % of control | [5] 93 % of control | [7] 98 % of control

CCN(CC)C(=S)S
inactive: [1] 101 % of control | endpoint: mean survival time, dose: 100.0 mg/kg/injection, schedule: Q01DX001 (ip), vehicle: carboxymethylcellulose (CMC) 106 % of control | [10] 107 % of control | [2] 103 % of control | endpoint: mean survival time, dose: 125.0 mg/kg/injection, schedule: Q01DX010 (ip), vehicle: saline 103 % of control and 90 % of control | endpoint: mean survival time, dose: 200.0 mg/kg/injection, schedule: Q01DX001 (ip), vehicle: carboxymethylcellulose (CMC) 96 % of control | [11] 103 % of control | [13] 106 % of control | endpoint: mean survival time, dose: 250.0 mg/kg/injection, schedule: Q01DX010 (ip), vehicle: saline 97 % of control and 87 % of control | endpoint: mean survival time, dose: 400.0 mg/kg/injection, schedule: Q01DX001 (ip), vehicle: carboxymethylcellulose (CMC) 102 % of control | [12] 102 % of control | [14] 103 % of control | endpoint: mean survival time, dose: 500.0 mg/kg/injection, schedule: Q01DX010 (ip), vehicle: saline 100 % of control and 91 % of control | endpoint: mean survival time, dose: 1000.0 mg/kg/injection, schedule: Q01DX010 (ip), vehicle: saline 114 % of control | endpoint: median survival time, dose: 500.0 mg/kg/injection, schedule: Q01DX001 (ip), vehicle: saline 103 % of control | endpoint: median survival time, dose: 1000.0 mg/kg/injection, schedule: Q01DX001 (ip), vehicle: saline 108 % of control

CCCCCOC(=O)CN(CC(=O)OCCCCC)c1ccc(C=O)cc1
inactive: [15] 103 % of control | [16] 100 % of control | [17] 92 % of control

CCCCCCCCc1cc(Cl)c(O)c(Cl)c1
inactive: endpoint: mean survival time, dose: 50.0 mg/kg/injection, schedule: Q01DX009 (ip), vehicle: Klucel (hydroxypropylcellulose) (HPC) 105 % of control | [3] 105 % of control | [5] 93 % of control

Brc1ccc2[nH]c3c(c2c1)CSCC3
inactive: endpoint: mean survival time, dose: 100.0 mg/kg/injection, schedule: Q01DX001 (ip), vehicle: saline with Tween-80 95 % of control | endpoint: mean survival time, dose: 200.0 mg/kg/injection, schedule: Q01DX001 (ip), vehicle: saline with Tween-80 111 % of control | endpoint: mean survival time, dose: 400.0 mg/kg/injection, schedule: Q01DX001 (ip), vehicle: saline with Tween-80 108 % of control

CN(C)C(=S)Oc1cc(Cl)c(Cl)cc1Cl
inactive: [4] 96 % of control | [6] 95 % of control | [8] 90 % of control

CC(=O)N1C(=O)N(Cl)C(=O)C1(c1ccc(Cl)cc1)c1ccc(Cl)cc1
inactive: endpoint: mean survival time, dose: 100.0 mg/kg/injection, schedule: Q01DX009 (ip), vehicle: saline with Tween-80 108 % of control | [15] 92 % of control | endpoint: mean survival time, dose: 200.0 mg/kg/injection, schedule: Q01DX009 (ip), vehicle: saline with Tween-80 104 % of control | [16] 100 % of control | endpoint: mean survival time, dose: 400.0 mg/kg/injection, schedule: Q01DX009 (ip), vehicle: saline with Tween-80 102 % of control | [17] 98 % of control

O=C(O)/C=C/c1ccc(O)c(O)c1
inactive: endpoint: mean survival time, dose: 100.0 mg/kg/injection, schedule: Q04DX002 (ip), vehicle: gum acacia 92 % of control | endpoint: mean survival time, dose: 200.0 mg/kg/injection, schedule: Q04DX002 (ip), vehicle: gum acacia 92 % of control | endpoint: mean survival time, dose: 400.0 mg/kg/injection, schedule: Q04DX002 (ip), vehicle: gum acacia 95 % of control
